The test system of the data set is Factor 11 mRNA. Kind of data set: Factor 11 mRNA in cynomolgus monkey liver, day 85 (Example 45). Particulars: cynomolgus monkeys, s.c. escalating doses 5-25 mg/kg over 12 weeks. Format: in vivo. As for the experimental part:
Groups, each consisting of two male and three female monkeys, were injected subcutaneously with ISIS 416838, ISIS 416850, ISIS 416858, ISIS 416864, or ISIS 417002 in escalating doses. Antisense oligonucleotide was administered to the monkeys at 5 mg/kg three times per a week for week 1; 5 mg/kg twice per week for weeks 2 and 3; 10 mg/kg three times per week for week 4; 10 mg/kg twice per week for weeks 5 and 6; 25 mg/kg three times per week for week 7; and 25 mg/kg twice per week for weeks 8, 9, 10, 11, and 12. One control group, consisting of two male and three female monkeys, was injected subcutaneously with PBS according to the same dosing regimen. An additional experimental group, consisting of two male and three female monkeys, was injected subcutaneously with ISIS 416850 in a chronic, lower dose regimen. Antisense oligonucleotide was administered to the monkeys at 5 mg/kg three times per week for week 1; 5 mg/kg twice per week for week 2 and 3; 10 mg/kg three times per week for week 4; and 10 mg/kg twice per week for weeks 5 to 12. Body weights were measured weekly. Blood samples were collected 14 days and 5 days before the start of treatment and subsequently once per week for Factor 11 protein activity analysis in plasma, fibrinogen measurement, PT and aPTT measurements, bleeding times, and measurement of various hematologic factors. On day 85, the monkeys were euthanized by exsanguination while under deep anesthesia, and organs harvested for further analysis.
On day 85, RNA was extracted from liver tissue for real-time PCR analysis of Factor 11 using primer probe set LTS00301 (forward primer sequence […], designated herein as SEQ ID NO 271; reverse primer sequence […], designated herein as SEQ ID NO: 272; and probe sequence TGCAGGCACAGCATCCCAGTGTTCTX, designated herein as SEQ ID NO. 273). Results are presented as percent inhibition of Factor 11, relative to PBS control.
Turning to “417002 (antisense GGTGCACAGTTTCTGGCAGG; 2-13-5 gapmer chemistry, further chemistry not given here) [compound 417002]”, the “% inhibition of Factor 11 mRNA in the cynomolgus monkey liver relative to the PBS control” value was 57%.
The result for “416850 (antisense TGCACAGTTTCTGGCAGGCC; 5-10-5 gapmer, further chemistry not given here) [compound 416850]” reads 84%; that for “416858 (antisense ACGGCATTGGTGCACAGTTT; 5-10-5 gapmer, further chemistry not given here) [compound 416858]”, 90%; that for “416864 (antisense GGCAGCGGACGGCATTGGTG; 5-10-5 gapmer, further chemistry not given here) [compound 416864]”, 44%.
In the case of “416838 (antisense GCAACCGGGATGATGAGTGC; 5-10-5 gapmer, further chemistry not given here) [compound 416838]” it was 37%.
